This note sets out measurements from ChEMBL document CHEMBL1201862, “PubChem BioAssay data set” (2004).

Assay in all cases: NCI tumour cell line growth inhibition, 48 h
Test [1] concerns HL-60.
Test [2] concerns MDA-N.
The subject of test [3] is PC-3.
Test [4] relates to SW-620.
In test [5] the test system is SNB-19.
In test [6] the test system is OVCAR-8.
Test [7] deals with MDA-MB-435.
Test [8] has as its system NCI/ADR-RES.
The subject of test [9] is LOX IMVI.
The test system of test [10] is DU-145.
The test system of test [11] is HOP-62.
Test [12] relates to IGROV-1.
In test [13] the test system is NCI-H522.
For test [14], the system named is U-251.
Test [15] has as its system TK-10.
For test [16], the system named is MCF7.
The subject of test [17] is NCI-H226.
In test [18] the test system is A498.
Test [19] deals with UACC-257.
The subject of test [20] is T47D.

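Each compound was tested at five concentrations against cells in 96-well plates for 48 hours. GI50 marks 50% less growth.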 Active and inactive are the calls of the source. Cut-off read from the data, not from the text of the source: active = GI50 up to about 1.1 µM and inactive = higher. A value given as a limit tells only on which side of the number the result lay.

With `COC(=O)Cc1cc2c(cc1C(=O)c1ccc(N)cc1)OCO2`, the GI50 in [1] was 2.36 µM (inactive); in test [2], 0.19 µM (active); in [3], 1.73 µM (inactive); in test [4], 1.19 µM (inactive); in [5] it was 8.83 µM (inactive); in [6], 3.56 µM (inactive). In addition, the GI50 in test [7] is 0.169 µM (active); in test [8] it was 0.667 µM (active); in test [9], 5.45 µM (inactive); in test [10] it was 4.11 µM (inactive); in test [11] it was 3.84 µM (inactive); in test [12], 0.625 µM (active). For the same compound, the GI50 in [13] was 0.228 µM (active); in [14], 3.05 µM (inactive); in test [15] it was > 19.7 µM (inactive); in test [16], 0.902 µM (active); in [17], 22.2 µM (inactive).
Turning to `CC(C)(C)NNc1c([N+](=O)[O-])cnn(-c2ccccc2)c1=O`, the GI50 was 1.34 µM (inactive) in [1]; 1.83 µM (inactive) in test [3]; 1.76 µM (inactive) in [4]; 29.8 µM (inactive) in test [18]; 11.2 µM (inactive) in test [5]; 2.26 µM (inactive) in test [6]. Further, the GI50 in [7] is 1.81 µM (inactive); in test [9], 1.79 µM (inactive); in test [10], 12.8 µM (inactive); in test [19], 4.6 µM (inactive); in test [11], 8.63 µM (inactive); in test [12] it was 20.4 µM (inactive). For the same compound, the GI50 in test [13] was 1.77 µM (inactive); in [14], 3.2 µM (inactive); in test [20], 2.29 µM (inactive); in [15], 22 µM (inactive); in test [16], 2.92 µM (inactive); in test [17], 7.96 µM (inactive).
On to `CCn1nc(C)c2c1C(=O)NC(C)C(=O)N2` (stereo not given), for which the GI50 in test [2], in test [3], in [4], in test [18], in test [5] and in test [6] was > 100 µM (inactive) throughout. Further, the GI50 in test [7], in test [10], in test [19], in [12], in test [13] and in test [14] was > 100 µM (inactive) each time. For the same compound, the GI50 in test [15] is > 100 µM (inactive).
As to `O=Cc1ccccc1B(O)O`, the GI50 was 22 µM (inactive) in test [1]; 22.1 µM (inactive) in [3]; 25.7 µM (inactive) in [4]; > 100 µM (inactive) in [5]; 67.8 µM (inactive) in test [6]; 99.1 µM (inactive) in test [7]. The GI50 in test [8] is 52 µM (inactive); in test [9], 20.7 µM (inactive); in test [10] it was < 0.01 µM (active); in test [19], 25.8 µM (inactive); in [11], > 100 µM (inactive); in test [12], 29.6 µM (inactive). In addition, the GI50 in [13] is 22.9 µM (inactive); in [14], 30.7 µM (inactive); in test [20], 0.0147 µM (active); in [15], 55.6 µM (inactive); in [16], 29.4 µM (inactive); in test [17], > 100 µM (inactive).
On to `CCOP(=O)(OCC)/C(C#N)=C/c1cn(C)cn1`, for which the GI50 in test [2], in test [3], in test [4], in [18], in [5] and in [6] was > 100 µM (inactive) in each case. Moreover, the GI50 in test [7], in test [8], in test [19], in test [11], in [12] and in test [13] was > 100 µM (inactive) throughout. The GI50 in [14], in test [15], in test [16] and in test [17] was > 100 µM (inactive) each time.
As for `O=C1OC[C@@H]2Cc3cc4c(cc3[C@H](c3ccc5c(c3)OCO5)[C@@H]12)OCO4`, the GI50 in test [1] was 10.6 µM (inactive); in [2] it was 12 µM (inactive); in test [5] it was > 25 µM (inactive); in test [6], > 25 µM (inactive); in [7], 13.3 µM (inactive); in [8] it was 9.33 µM (inactive). Besides, the GI50 in test [9] was > 25 µM (inactive); in [10], > 25 µM (inactive); in [19] it was > 25 µM (inactive); in test [11], 24.7 µM (inactive); in test [14], > 25 µM (inactive); in test [15], > 25 µM (inactive). For the same compound, the GI50 in [16] is 24.2 µM (inactive).
Take `CC(C)(C)[C@H]1CC[C@@](O)(c2ccccc2)CC1.CC(C)(C)[C@H]1CC[C@](O)(c2ccccc2)CC1`: the GI50 in test [1] is 16.3 µM (inactive); in test [4], 3.74 µM (inactive); in test [18], 19.5 µM (inactive); in test [5], 25.2 µM (inactive); in test [6] it was 18.7 µM (inactive); in test [9], 15.3 µM (inactive). Moreover, the GI50 in test [19] was 22.2 µM (inactive); in test [11], 26.7 µM (inactive); in test [12] it was 25.9 µM (inactive); in test [13], 23.4 µM (inactive); in test [14], 16.3 µM (inactive); in [15], 19.4 µM (inactive). The GI50 in [17] is 11.6 µM (inactive).
`CC(C)(C)C1CCN(C(=O)c2ccccc2)CC1`: the GI50 in [1] is 32.9 µM (inactive); in test [4], > 100 µM (inactive); in test [18], > 100 µM (inactive); in test [5], > 100 µM (inactive); in test [6], > 100 µM (inactive); in test [9], > 100 µM (inactive). Also, the GI50 was 41.1 µM (inactive) in test [19]; > 100 µM (inactive) in [11]; > 100 µM (inactive) in [12]; 62.7 µM (inactive) in test [13]; > 100 µM (inactive) in test [14]; > 100 µM (inactive) in test [15]. In test [17], the GI50 is > 100 µM (inactive).
On to `O=C(CC(=O)c1cccc([N+](=O)[O-])c1)C(=O)Nc1nc([N+](=O)[O-])cs1`, for which the GI50 in test [1], in [4], in test [18], in test [5], in [6] and in test [9] was > 100 µM (inactive) each time. Moreover, the GI50 in [19] was > 100 µM (inactive); in [11], > 100 µM (inactive); in test [12] it was > 100 µM (inactive); in test [13] it was 33.3 µM (inactive); in [14], > 100 µM (inactive); in test [15] it was > 100 µM (inactive). For the same compound, the GI50 in test [17] is > 100 µM (inactive).
Consider `CON(C(=O)OC(C)(C)C)c1ccccc1`, for which the GI50 in [1], in test [3], in test [4], in test [18], in test [5] and in test [6] was > 100 µM (inactive) throughout. The GI50 in [7], in test [8], in [9], in [10], in test [19] and in test [11] was > 100 µM (inactive) in each case. In addition, the GI50 in test [12], in test [13], in [14], in test [20], in test [15] and in test [17] was > 100 µM (inactive) throughout.
Consider `COc1ccc(/N=N/c2c(-c3ccccc3)nn(C(=O)CC(=O)Nc3ccc(OC)cc3)c2-c2ccccc2)cc1`, for which the GI50 in [1] is > 100 µM (inactive); in test [4], > 100 µM (inactive); in test [18] it was 33.2 µM (inactive); in [5], 29.9 µM (inactive); in [6], > 100 µM (inactive); in test [9] it was > 100 µM (inactive). Moreover, the GI50 in test [19] was > 100 µM (inactive); in test [11], 23.4 µM (inactive); in test [12] it was 39.9 µM (inactive); in [13] it was 61.5 µM (inactive); in test [14], 58.3 µM (inactive); in [15], 52.7 µM (inactive). In test [17], the GI50 was > 100 µM (inactive).
Regarding `CCCCNC(=S)Nc1nc(C(=O)NNS(=O)(=O)c2ccccc2)cs1`, the GI50 in test [3] was 29 µM (inactive); in test [18], 45.2 µM (inactive); in [6], 33.7 µM (inactive); in [7], 21.4 µM (inactive); in test [8], 60.3 µM (inactive); in test [9], 19.4 µM (inactive). Besides, the GI50 in [10] was 35.5 µM (inactive); in test [19], 22.9 µM (inactive); in test [11] it was 36.4 µM (inactive); in test [12], 24.9 µM (inactive); in test [13], 28.8 µM (inactive); in test [14] it was 39.5 µM (inactive). The GI50 was 71.8 µM (inactive) in test [20], 36 µM (inactive) in [15], 42 µM (inactive) in test [16] and > 10 µM (inactive) in [17].
On to `N#Cc1c(N)oc(-c2cccc([N+](=O)[O-])c2)c1C#N`, for which the GI50 in test [1] is 28.5 µM (inactive); in test [3], 62.8 µM (inactive); in test [4], 24.1 µM (inactive); in test [18], 21 µM (inactive); in [5], 31.6 µM (inactive); in test [6], 21.1 µM (inactive). Moreover, the GI50 in test [7] is 31.2 µM (inactive); in test [8], 30.5 µM (inactive); in [9], 31.6 µM (inactive); in [10] it was > 100 µM (inactive); in [19] it was 21.8 µM (inactive); in [11], > 10 µM (inactive). Further, the GI50 in test [12] is 23.6 µM (inactive); in [13] it was 23.7 µM (inactive); in [14], 27.5 µM (inactive); in test [20] it was 50 µM (inactive); in test [15] it was 22.1 µM (inactive); in test [16], 53.3 µM (inactive). For the same compound, in test [17], the GI50 is 43.2 µM (inactive).
